Data as given in US20250101436A1, “APTAMERS AND SMALL MOLECULE LIGANDS” (MeiraGTx UK II Limited, priority 2021, published 2025).

system: N5-12G6 riboswitch; assay: Firefly luciferase assay, N5-12G6 riboswitch in HEK293 cells; details: 12G6 riboswitch, HEK293
Method: Transfection: 3.5×10^4 human embryonic kidney (HEK) 293 cells were plated in a 96-well flat bottom plate the day before transfection. Plasmid DNA (500 ng) was added to a tube or a 96-well U-bottom plate. Separately, TransIT-293 reagent (Mirus; 1.4 L) was added to 50 μL Optimum I media (Life Technologies) and allowed to sit for 5 minutes at room temperature (RT). Then, 50 μL of this diluted transfection reagent was added to the DNA, mixed, and incubated at RT for 20 min. Finally, 7 μL of this solution was added to a well of cells in the 96-well plate. Four hours after transfection, medium containing transfection solution was replaced by medium with either TPP or fursultiamine as aptamer ligands.
Firefly luciferase assay of cultured cells: Twenty-four hours after media change, plates were removed from the incubator, and equilibrated to RT for several minutes on a lab bench, then aspirated. Glo-lysis buffer (Promega, 100 μL, RT) was added, and the plates allowed to remain at RT for at least 5 minutes. Then, the well contents were mixed by 50 μL trituration, and 20 μL of each sample was mixed with 20 μL of bright-glo reagent (Promega) that had been diluted to 10% in glo-lysis buffer. 96 wells were spaced on an opaque white 384-well plate. Following a 5 min incubation at RT, luminescence was measured using a Tecan machine with 500 ms read time. The luciferase activity was expressed as mean arbitrary light units (ALU)±S.D., and fold induction was calculated as the quotient of the luciferase activity obtained from cells with TPP or analog compound treatment divided by the luciferase activity obtained from cells without TPP or analog compound treatment.

Q: For Clc1cncc(NCc2ccc3nccnc3c2)c1N1CCNCC1 [compound 019, 5-Chloro-4-(piperazin-1-yl)-N-(quinoxalin-6-ylmethyl)pyridin-3-amine], which “regulation of luciferase expression (FIG. 4e)” value is on record?
A: regulate expression in a dose-dependent fashion

Q: With CC1CN(c2ccncc2NCc2ccc3nccnc3c2)CCN1 (stereo not shown) [compound 016, 4-(3-Methylpiperazin-1-yl)-N-(quinoxalin-6-ylmethyl)pyridin-3-amine] as the compound, how does the “regulation of luciferase expression (FIG. 4e)” value read?
A: regulate expression in a dose-dependent fashion

same assay, conditions: 12G6 riboswitch, luciferase, HEK293, 2 μM

Q: Which “Fold induction 2 μM (HEK)” value does the source give for Fc1cc(CNc2cncc(Cl)c2N2CCNCC2)cc2nccnc12 [compound 053, 5-chloro-N-((8-fluoroquinoxalin-6-yl)methyl)-4-(piperazin-1-yl)pyridin-3-amine] here?
A: 16.8 fold

Q: Which “Fold induction 2 μM (HEK)” value does the source give for Fc1cc(CNc2cncc(Cl)c2N2CCNCC2)cc2nccnc12 [compound 077, 5-chloro-N-((8-fluoroquinoxalin-6-yl)methyl)-4-(piperazin-1-yl)pyridin-3-amine] here?
A: 43.5 fold

same assay, conditions: Homo sapiens, HEK293, read-out: Fold induction 2 μM (HEK), 12G6 riboswitch, luciferase, HEK293, 2 μM

Q: Which fold induction at 2 µM does the source give for Fc1cc(CNc2cnccc2O[C@@H]2CCNC2)cc2nccnc12 [compound 105, (R)—N-((8-fluoroquinoxalin-6-yl)methyl)-4-(pyrrolidin-3-yloxy)pyridin-3-amine] here?
A: 37.7

Q: For Clc1cncc(NCc2ccc3nccnc3c2)c1N1CCNCC1 [compound 019, 5-Chloro-4-(piperazin-1-yl)-N-(quinoxalin-6-ylmethyl)pyridin-3-amine], which fold induction at 2 µM is on record?
A: 60.2

Q: Fc1c(CNc2cncc(Cl)c2N2CCNCC2)ccc2nccnc12 [compound 078, 5-chloro-N-((5-fluoroquinoxalin-6-yl)methyl)-4-(piperazin-1-yl)pyridin-3-amine] was tested. Which fold induction at 2 µM did it give?
A: 6.1

Q: Which fold induction at 2 µM does the source give for Fc1cc2nccnc2cc1CNc1cnccc1N1CCCNCC1 [compound 090, 4-(1,4-diazepan-1-yl)-N-((7-fluoroquinoxalin-6-yl)methyl)pyridin-3-amine] here?
A: 15

Q: C[C@@H]1CNCCN1c1ccncc1NCc1cc2nccnc2cc1F [compound 100, (R)—N-((7-fluoroquinoxalin-6-yl)methyl)-4-(2-methylpiperazin-1-yl)pyridin-3-amine] was tested. Which fold induction at 2 µM did it give?
A: 3.5

Q: How did the fold induction at 2 µM turn out when C[C@H]1CN(c2ccncc2NCc2cc(Cl)c3nccnc3c2)CCN1 [compound 101, (S)—N-((8-chloroquinoxalin-6-yl)methyl)-4-(3-methylpiperazin-1-yl)pyridin-3-amine] was run?
A: 2.2

Q: With C[C@@H]1CN(c2c(Cl)cncc2NCc2ccc3nccnc3c2)CCN1 [compound 056, (R)-5-chloro-4-(3-methylpiperazin-1-yl)-N-(quinoxalin-6-ylmethyl)pyridin-3-amine] as the compound, how does the fold induction at 2 µM read?
A: 12.9

Q: For Clc1cc2nccnc2cc1CNc1cnccc1O[C@@H]1CCNC1 [compound 108, (R)—N-((7-chloroquinoxalin-6-yl)methyl)-4-(pyrrolidin-3-yloxy)pyridin-3-amine], which fold induction at 2 µM is on record?
A: 37.5

Q: For Clc1cc(CNc2cnccc2OC2CNC2)cc2nccnc12 [compound 064, 4-(azetidin-3-yloxy)-N-((8-chloroquinoxalin-6-yl)methyl)pyridin-3-amine], which fold induction at 2 µM is on record?
A: 15

Q: Which fold induction at 2 µM does the source give for c1cc(N2CC3(CNC3)C2)c(NCc2ccc3nccnc3c2)cn1 [compound 046, N-(quinoxalin-6-ylmethyl)-4-(2,6-diazaspiro[3.3]heptan-2-yl)pyridin-3-amine] here?
A: 1.6

Q: How did the fold induction at 2 µM turn out when Cc1cncc(NCc2cc3nccnc3cc2F)c1N1CCNCC1 [compound 086, N-((7-fluoroquinoxalin-6-yl)methyl)-5-methyl-4-(piperazin-1-yl)pyridin-3-amine] was run?
A: 17.3

Q: How did the fold induction at 2 µM turn out when Fc1cncc(NCc2cc(Cl)c3nccnc3c2)c1N1CCNCC1 [compound 081, N-((8-chloroquinoxalin-6-yl)methyl)-5-fluoro-4-(piperazin-1-yl)pyridin-3-amine] was run?
A: 3.9

Q: Which fold induction at 2 µM does the source give for C[C@H]1CNCCN1c1ccncc1NCc1cc2nccnc2cc1Cl [compound 063, (S)—N-((7-chloroquinoxalin-6-yl)methyl)-4-(2-methylpiperazin-1-yl)pyridin-3-amine] here?
A: 2.7

Q: How did the fold induction at 2 µM turn out when Cc1cncc(NCc2cc3nccnc3cc2Cl)c1N1CCNCC1 [compound 087, N-((7-chloroquinoxalin-6-yl)methyl)-5-methyl-4-(piperazin-1-yl)pyridin-3-amine] was run?
A: 20.9

Q: For Fc1cc2nccnc2cc1CNc1cnccc1N1CCNCC1 [compound 050, N-((7-fluoroquinoxalin-6-yl)methyl)-4-(piperazin-1-yl)pyridin-3-amine], which fold induction at 2 µM is on record?
A: 23.5

Q: With Fc1cncc(NCc2ccc3nccnc3c2)c1O[C@@H]1CCNC1 [compound 109, (R)-5-fluoro-4-(pyrrolidin-3-yloxy)-N-(quinoxalin-6-ylmethyl)pyridin-3-amine] as the compound, how does the fold induction at 2 µM read?
A: 54.6

Q: How did the fold induction at 2 µM turn out when C[C@@H]1CNCCN1c1c(Cl)cncc1NCc1ccc2nccnc2c1 [compound 026, (R)-5-Chloro-4-(2-methylpiperazin-1-yl)-N-(quinoxalin-6-ylmethyl)pyridin-3-amine] was run?
A: 27.2

Q: For Brc1cncc(NCc2ccc3nccnc3c2)c1N1CCNCC1 [compound 074, 5-bromo-4-(piperazin-1-yl)-N-(quinoxalin-6-ylmethyl)pyridin-3-amine], which fold induction at 2 µM is on record?
A: 48.6

Q: How did the fold induction at 2 µM turn out when Clc1cc(CNc2cnccc2N2CCNCC2)cc2nccnc12 [compound 049, N-((8-chloroquinoxalin-6-yl)methyl)-4-(piperazin-1-yl)pyridin-3-amine] was run?
A: 5.7

Q: For COc1cc(CNc2cnccc2N2CCNCC2)cc2nccnc12 [compound 071, N-((8-methoxyquinoxalin-6-yl)methyl)-4-(piperazin-1-yl)pyridin-3-amine], which fold induction at 2 µM is on record?
A: 6.1

Q: Which fold induction at 2 µM does the source give for Clc1cncc(NCc2cc(Cl)c3nccnc3c2)c1N1CCNCC1 [compound 055, 5-chloro-N-((8-chloroquinoxalin-6-yl)methyl)-4-(piperazin-1-yl)pyridin-3-amine] here?
A: 4.1

Q: Clc1cncc(NCc2ccc3nccnc3c2)c1N1CCCNCC1 [compound 093, 5-chloro-4-(1,4-diazepan-1-yl)-N-(quinoxalin-6-ylmethyl)pyridin-3-amine] was tested. Which fold induction at 2 µM did it give?
A: 30.7

Q: For Cc1cncc(NCc2ccc3nccnc3c2)c1N1CCNCC1 [compound 023, 5-Methyl-4-(piperazin-1-yl)-N-(quinoxalin-6-ylmethyl)pyridin-3-amine], which fold induction at 2 µM is on record?
A: 67.4

Q: c1cnc2cc(CNc3cnc4[nH]ccc4c3N3CCNCC3)ccc2n1 [compound 114, 4-(piperazin-1-yl)-N-(quinoxalin-6-ylmethyl)-1H-pyrrolo[2,3-b]pyridin-5-amine] was tested. Which fold induction at 2 µM did it give?
A: 60.1

Q: COc1cc2nccnc2cc1CNc1cnccc1N1CCNCC1 [compound 072, N-((7-methoxyquinoxalin-6-yl)methyl)-4-(piperazin-1-yl)pyridin-3-amine] was tested. Which fold induction at 2 µM did it give?
A: 19.6

Q: For Cc1cncc(NCc2ccc3nccnc3c2)c1N1CCN[C@@H](C)C1 [compound 104, (S)-5-methyl-4-(3-methylpiperazin-1-yl)-N-(quinoxalin-6-ylmethyl)pyridin-3-amine], which fold induction at 2 µM is on record?
A: 33.3

Q: For C[C@@H]1CN(c2ccncc2NCc2cc3nccnc3cc2Cl)CCN1 [compound 058, (R)—N-((7-chloroquinoxalin-6-yl)methyl)-4-(3-methylpiperazin-1-yl)pyridin-3-amine], which fold induction at 2 µM is on record?
A: 6.1

Q: How did the fold induction at 2 µM turn out when c1cc(OC2CNC2)c(NCc2ccc3nccnc3c2)cn1 [compound 022, 4-(Azetidin-3-yloxy)-N-(quinoxalin-6-ylmethyl)pyridin-3-amine] was run?
A: 43.2

Q: How did the fold induction at 2 µM turn out when c1cc(OC2CCNCC2)c(NCc2ccc3nccnc3c2)cn1 [compound 045, 4-(piperidin-4-yloxy)-N-(quinoxalin-6-ylmethyl)pyridin-3-amine] was run?
A: 12

Q: How did the fold induction at 2 µM turn out when C[C@@H]1CNCCN1c1ccncc1NCc1cc(F)c2nccnc2c1 [compound 065, (R)—N-((8-fluoroquinoxalin-6-yl)methyl)-4-(2-methylpiperazin-1-yl)pyridin-3-amine] was run?
A: 21.7

Q: Cc1cc2nccnc2cc1CNc1cnccc1N1CCNCC1 [compound 069, N-((7-methylquinoxalin-6-yl)methyl)-4-(piperazin-1-yl)pyridin-3-amine] was tested. Which fold induction at 2 µM did it give?
A: 28.3

Q: Which fold induction at 2 µM does the source give for Brc1cncc(NCc2ccc3nccnc3c2)c1OC1CNC1 [compound 112, 4-(azetidin-3-yloxy)-5-bromo-N-(quinoxalin-6-ylmethyl)pyridin-3-amine] here?
A: 40.9

Q: C[C@H]1CN(c2ccncc2NCc2cc3nccnc3cc2F)CCN1 [compound 102, (S)—N-((7-fluoroquinoxalin-6-yl)methyl)-4-(3-methylpiperazin-1-yl)pyridin-3-amine] was tested. Which fold induction at 2 µM did it give?
A: 13.6

Q: For Fc1cncc(NCc2ccc3nccnc3c2)c1N1CCNCC1 [compound 073, 5-fluoro-4-(piperazin-1-yl)-N-(quinoxalin-6-ylmethyl)pyridin-3-amine], which fold induction at 2 µM is on record?
A: 43.9

same assay, conditions: Homo sapiens, HEK293, read-out: Fold induction 3.3 μM (HEK), 12G6 riboswitch, luciferase, HEK293, 3.3 μM

Q: With C[C@@H]1CN(c2ccncc2NCc2ccc3nccnc3c2)CCN1 [compound 043, (R)-4-(3-methylpiperazin-1-yl)-N-(quinoxalin-6-ylmethyl)pyridin-3-amine] as the compound, how does the fold induction at 3.3 µM read?
A: 31

same assay, conditions: Homo sapiens, HEK293, read-out: Fold induction 25 μM (HEK), 12G6 riboswitch, luciferase, HEK293, 25 μM

Q: For FC(F)(F)C1CNCCN1c1ccncc1NCc1ccc2nccnc2c1 (stereo not shown) [compound 037, N-(quinoxalin-6-ylmethyl)-4-(2-(trifluoromethyl)piperazin-1-yl)pyridin-3-amine], which fold induction at 25 µM is on record?
A: 6.1

Q: For Clc1cncc(NCc2ccc3nccnc3c2)c1N1CCNCC1 [compound 019, 5-Chloro-4-(piperazin-1-yl)-N-(quinoxalin-6-ylmethyl)pyridin-3-amine], which fold induction at 25 µM is on record?
A: 453

Q: O=C1CN(c2ccncc2NCc2ccc3nccnc3c2)CCN1 [compound 038, 4-(3-((quinoxalin-6-ylmethyl)amino)pyridin-4-yl)piperazin-2-one] was tested. Which fold induction at 25 µM did it give?
A: 2.9

Q: CC1CN(c2ccncc2NCc2ccc3nccnc3c2)CCN1 (stereo not shown) [compound 016, 4-(3-Methylpiperazin-1-yl)-N-(quinoxalin-6-ylmethyl)pyridin-3-amine] was tested. Which fold induction at 25 µM did it give?
A: 287

Q: c1cc(N2CC3CNCC3C2)c(NCc2ccc3nccnc3c2)cn1 (stereo not shown) [compound 032, 4-(hexahydropyrrolo[3,4-c]pyrrol-2(1H)-yl)-N-(quinoxalin-6-ylmethyl)pyridin-3-amine] was tested. Which fold induction at 25 µM did it give?
A: 69.4

Q: For NC1CCN(c2ccncc2NCc2ccc3nccnc3c2)CC1 [compound 033, 4-(4-aminopiperidin-1-yl)-N-(quinoxalin-6-ylmethyl)pyridin-3-amine], which fold induction at 25 µM is on record?
A: 7.8

Q: With c1cc(C2CCNCC2)c(NCc2ccc3nccnc3c2)cn1 [compound 017, 4-(Piperidin-4-yl)-N-(quinoxalin-6-ylmethyl)pyridin-3-amine] as the compound, how does the fold induction at 25 µM read?
A: 130
